Results on 7 molecules are retold here after PubChem BioAssay (NCI).

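Protocol summary: plate cells (96-well), add compound at 5 concentrations, incubate 48 h, interpolate endpoints linearly. The concentration for full growth arrest is given as TGI.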

Some test systems named below: XF 498 CNS; DLD-1 colon; DMS 273 small cell lung; HOP-18 NSCLC; BT-549 breast; RXF-631 renal; SNB-78 CNS; LXFL 529 NSCLC; P388 leukemia; P388/ADR leukemia; SN12K1 renal.
Common to all, as to experiment: NCI tumour cell line growth inhibition, 48 h

As for `C#CCCCCC#Cc1ccccc1C(=O)OC`, the TGI with XF 498 CNS, in the experiment with DLD-1 colon, in the experiment on DMS 273 small cell lung and with HOP-18 NSCLC was more than 100 µM throughout.

In the case of `C=CCN1C(=O)/C(=C/c2ccccc2)N=C1SC1OC(COC(=O)c2ccccc2)C(OC(=O)c2ccccc2)C1OC(=O)c1ccccc1` (stereo unspecified), the TGI with BT-549 breast was more than 100 µM.

As for `C=C(C(=O)C(=O)Oc1ccc(Cl)cc1)C(=O)c1ccc(C)cc1`, the TGI is more than 100 µM in the experiment on RXF-631 renal; more than 100 µM with XF 498 CNS; more than 100 µM with SNB-78 CNS; 99.3 µM in the experiment with DLD-1 colon; more than 100 µM in the experiment on DMS 273 small cell lung; more than 100 µM with HOP-18 NSCLC. This molecule also yielded a TGI with LXFL 529 NSCLC of 80 µM.

As to `COC(=O)C1C(C(=O)OC)N(Cc2ccccc2)C(=O)N1Cc1ccccc1` (stereo unspecified), the TGI with BT-549 breast was more than 100 µM.

As to `COCCOCOc1ccc(OCc2ccccc2)cc1`, the TGI was 60.7 µM with P388 leukemia; more than 100 µM with XF 498 CNS; more than 100 µM in the experiment with SNB-78 CNS; more than 100 µM in the experiment on DLD-1 colon; 89.1 µM in the experiment with P388/ADR leukemia; more than 100 µM in the experiment on DMS 273 small cell lung. Further, the TGI with HOP-18 NSCLC and in the experiment on SN12K1 renal was more than 100 µM throughout.

For the molecule `C/C(CCOC1CCCCO1)=C(\C)[Si](C)(C)C` (stereo unspecified), the TGI in the experiment on XF 498 CNS, in the experiment with SNB-78 CNS, in the experiment on DLD-1 colon and in the experiment on LXFL 529 NSCLC was more than 100 µM each time.

In the case of `Oc1ccc(/C=C/c2cc(O)cc(O)c2)cc1`, in the experiment on BT-549 breast, the TGI was more than 100 µM.
